Activity calls are given as the source filed them. The rule behind the calls is not given here.
What was measured:
[1] = target: T1, Histone deacetylase 8 (Schistosoma mansoni) (UniProt A5H660); assay: Inhibition of Schistosoma mansoni KDAC8 at 30 uM using (FAM)-labeled peptide as substrate after 60 mins by microfluidic assay
T1 sequence (whole entry): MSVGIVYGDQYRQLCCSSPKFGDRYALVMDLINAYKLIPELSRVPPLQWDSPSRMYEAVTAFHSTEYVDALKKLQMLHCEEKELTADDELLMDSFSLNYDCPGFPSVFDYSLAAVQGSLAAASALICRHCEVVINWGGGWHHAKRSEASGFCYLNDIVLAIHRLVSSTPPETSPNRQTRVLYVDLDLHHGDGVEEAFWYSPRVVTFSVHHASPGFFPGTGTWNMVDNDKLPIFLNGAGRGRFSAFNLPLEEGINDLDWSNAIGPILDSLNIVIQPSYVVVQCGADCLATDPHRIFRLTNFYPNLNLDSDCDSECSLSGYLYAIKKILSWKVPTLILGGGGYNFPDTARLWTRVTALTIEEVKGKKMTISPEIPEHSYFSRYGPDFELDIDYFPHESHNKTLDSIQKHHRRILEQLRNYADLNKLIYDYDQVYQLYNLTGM

[2] = target: KDAC3/NCOR2 (histone deacetylase 3/nuclear receptor corepressor 2 complex) (Homo sapiens, UniProt O15379); assay: (§1) Inhibition of full length human C-terminal His-tagged KDAC3/N-terminal GST-tagged human NCOR2 (395 to 489 residues) expressed in baculovirus expression system at 30 uM using FITC-p53 acetylated peptide as substrate after 60 mins by microfluidic assay; settings: probe FITC-p53 acetylated peptide
Sequence of KDAC3/NCOR2 (histone deacetylase 3/nuclear receptor corepressor 2 complex) (O15379 whole entry, the tested form may be a part): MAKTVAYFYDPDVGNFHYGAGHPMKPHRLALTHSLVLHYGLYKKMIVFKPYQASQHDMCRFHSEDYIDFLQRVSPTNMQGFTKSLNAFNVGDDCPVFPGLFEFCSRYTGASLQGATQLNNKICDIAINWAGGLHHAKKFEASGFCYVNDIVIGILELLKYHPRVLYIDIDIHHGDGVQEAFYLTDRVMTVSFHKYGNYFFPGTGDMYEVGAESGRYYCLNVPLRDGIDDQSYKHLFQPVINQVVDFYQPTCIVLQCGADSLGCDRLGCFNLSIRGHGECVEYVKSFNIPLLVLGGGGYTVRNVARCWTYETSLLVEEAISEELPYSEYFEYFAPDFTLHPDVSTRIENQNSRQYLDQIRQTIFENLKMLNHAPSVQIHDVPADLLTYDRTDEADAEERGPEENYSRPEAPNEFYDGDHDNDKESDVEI
Sequence of KDAC3/NCOR2 (histone deacetylase 3/nuclear receptor corepressor 2 complex) (Q9Y618 whole entry, further chain, the tested form may be a part): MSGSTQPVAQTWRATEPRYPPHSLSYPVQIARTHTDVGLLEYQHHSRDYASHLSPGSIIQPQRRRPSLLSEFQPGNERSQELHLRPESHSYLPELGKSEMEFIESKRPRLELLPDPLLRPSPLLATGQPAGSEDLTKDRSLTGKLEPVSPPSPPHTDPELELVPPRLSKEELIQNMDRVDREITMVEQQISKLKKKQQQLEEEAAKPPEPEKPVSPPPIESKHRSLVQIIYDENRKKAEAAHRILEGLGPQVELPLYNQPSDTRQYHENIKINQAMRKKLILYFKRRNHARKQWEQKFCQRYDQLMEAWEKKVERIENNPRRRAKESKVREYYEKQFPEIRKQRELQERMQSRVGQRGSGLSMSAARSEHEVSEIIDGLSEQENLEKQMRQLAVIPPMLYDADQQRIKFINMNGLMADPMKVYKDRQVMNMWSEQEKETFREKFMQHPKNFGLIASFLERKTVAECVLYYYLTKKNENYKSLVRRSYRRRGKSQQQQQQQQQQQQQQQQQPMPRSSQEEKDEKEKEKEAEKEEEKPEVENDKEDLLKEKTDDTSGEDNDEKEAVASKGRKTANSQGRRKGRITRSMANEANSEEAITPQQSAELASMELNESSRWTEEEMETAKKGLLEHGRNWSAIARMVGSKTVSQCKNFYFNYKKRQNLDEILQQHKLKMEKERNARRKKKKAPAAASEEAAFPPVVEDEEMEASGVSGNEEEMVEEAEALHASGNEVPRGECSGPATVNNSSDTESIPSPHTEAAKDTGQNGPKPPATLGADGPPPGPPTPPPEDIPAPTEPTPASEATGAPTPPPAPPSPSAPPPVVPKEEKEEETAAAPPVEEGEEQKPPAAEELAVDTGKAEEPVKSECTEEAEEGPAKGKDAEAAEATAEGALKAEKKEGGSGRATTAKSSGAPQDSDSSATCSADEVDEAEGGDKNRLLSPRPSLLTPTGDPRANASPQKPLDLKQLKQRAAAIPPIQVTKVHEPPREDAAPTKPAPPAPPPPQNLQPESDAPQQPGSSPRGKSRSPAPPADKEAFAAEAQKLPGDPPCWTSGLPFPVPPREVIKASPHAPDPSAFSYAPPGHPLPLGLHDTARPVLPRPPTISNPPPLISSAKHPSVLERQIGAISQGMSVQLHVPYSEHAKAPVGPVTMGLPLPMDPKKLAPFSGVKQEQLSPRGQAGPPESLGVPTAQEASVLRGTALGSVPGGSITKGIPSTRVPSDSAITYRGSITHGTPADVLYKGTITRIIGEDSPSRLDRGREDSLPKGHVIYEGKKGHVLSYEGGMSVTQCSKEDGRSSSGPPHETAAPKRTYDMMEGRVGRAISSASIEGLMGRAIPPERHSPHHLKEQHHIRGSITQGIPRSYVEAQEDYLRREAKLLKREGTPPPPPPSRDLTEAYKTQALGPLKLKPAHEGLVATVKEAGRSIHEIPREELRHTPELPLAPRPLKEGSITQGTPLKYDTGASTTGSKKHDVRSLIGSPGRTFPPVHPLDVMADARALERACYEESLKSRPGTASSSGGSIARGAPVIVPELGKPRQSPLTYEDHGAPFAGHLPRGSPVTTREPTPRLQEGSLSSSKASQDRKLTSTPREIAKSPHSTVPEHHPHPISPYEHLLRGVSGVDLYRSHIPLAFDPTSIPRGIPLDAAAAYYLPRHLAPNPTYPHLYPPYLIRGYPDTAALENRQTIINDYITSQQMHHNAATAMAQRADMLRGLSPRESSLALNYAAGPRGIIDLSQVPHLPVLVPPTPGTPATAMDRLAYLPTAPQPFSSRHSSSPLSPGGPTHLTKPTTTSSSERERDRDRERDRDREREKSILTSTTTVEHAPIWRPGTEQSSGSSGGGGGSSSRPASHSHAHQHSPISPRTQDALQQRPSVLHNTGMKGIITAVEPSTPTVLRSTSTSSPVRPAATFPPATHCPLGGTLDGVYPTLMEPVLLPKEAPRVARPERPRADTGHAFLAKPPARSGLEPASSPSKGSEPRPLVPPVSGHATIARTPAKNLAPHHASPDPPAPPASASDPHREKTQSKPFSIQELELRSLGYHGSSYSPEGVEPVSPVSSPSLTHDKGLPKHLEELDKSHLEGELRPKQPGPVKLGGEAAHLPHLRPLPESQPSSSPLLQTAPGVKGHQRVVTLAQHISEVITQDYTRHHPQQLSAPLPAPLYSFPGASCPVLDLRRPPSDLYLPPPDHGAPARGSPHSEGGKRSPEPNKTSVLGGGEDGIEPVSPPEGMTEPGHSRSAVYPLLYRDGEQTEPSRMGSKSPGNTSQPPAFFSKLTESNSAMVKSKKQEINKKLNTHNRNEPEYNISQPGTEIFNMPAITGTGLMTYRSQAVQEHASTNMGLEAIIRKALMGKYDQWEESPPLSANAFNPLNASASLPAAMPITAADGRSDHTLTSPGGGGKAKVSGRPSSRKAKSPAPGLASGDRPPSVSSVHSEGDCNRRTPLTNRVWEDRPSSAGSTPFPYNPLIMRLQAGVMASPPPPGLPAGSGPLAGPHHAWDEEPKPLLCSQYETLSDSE

[3] = target: T2, Protein deacetylase HDAC6 (Homo sapiens, UniProt Q9UBN7); assay: Inhibition of human KDAC6 expressed in baculovirus expression system at 30 uM using FITC-Histone 4 acetylated peptide as substrate after 60 mins by microfluidic assay; settings: 1 h, 30 µM
T2 sequence (Q9UBN7 whole entry): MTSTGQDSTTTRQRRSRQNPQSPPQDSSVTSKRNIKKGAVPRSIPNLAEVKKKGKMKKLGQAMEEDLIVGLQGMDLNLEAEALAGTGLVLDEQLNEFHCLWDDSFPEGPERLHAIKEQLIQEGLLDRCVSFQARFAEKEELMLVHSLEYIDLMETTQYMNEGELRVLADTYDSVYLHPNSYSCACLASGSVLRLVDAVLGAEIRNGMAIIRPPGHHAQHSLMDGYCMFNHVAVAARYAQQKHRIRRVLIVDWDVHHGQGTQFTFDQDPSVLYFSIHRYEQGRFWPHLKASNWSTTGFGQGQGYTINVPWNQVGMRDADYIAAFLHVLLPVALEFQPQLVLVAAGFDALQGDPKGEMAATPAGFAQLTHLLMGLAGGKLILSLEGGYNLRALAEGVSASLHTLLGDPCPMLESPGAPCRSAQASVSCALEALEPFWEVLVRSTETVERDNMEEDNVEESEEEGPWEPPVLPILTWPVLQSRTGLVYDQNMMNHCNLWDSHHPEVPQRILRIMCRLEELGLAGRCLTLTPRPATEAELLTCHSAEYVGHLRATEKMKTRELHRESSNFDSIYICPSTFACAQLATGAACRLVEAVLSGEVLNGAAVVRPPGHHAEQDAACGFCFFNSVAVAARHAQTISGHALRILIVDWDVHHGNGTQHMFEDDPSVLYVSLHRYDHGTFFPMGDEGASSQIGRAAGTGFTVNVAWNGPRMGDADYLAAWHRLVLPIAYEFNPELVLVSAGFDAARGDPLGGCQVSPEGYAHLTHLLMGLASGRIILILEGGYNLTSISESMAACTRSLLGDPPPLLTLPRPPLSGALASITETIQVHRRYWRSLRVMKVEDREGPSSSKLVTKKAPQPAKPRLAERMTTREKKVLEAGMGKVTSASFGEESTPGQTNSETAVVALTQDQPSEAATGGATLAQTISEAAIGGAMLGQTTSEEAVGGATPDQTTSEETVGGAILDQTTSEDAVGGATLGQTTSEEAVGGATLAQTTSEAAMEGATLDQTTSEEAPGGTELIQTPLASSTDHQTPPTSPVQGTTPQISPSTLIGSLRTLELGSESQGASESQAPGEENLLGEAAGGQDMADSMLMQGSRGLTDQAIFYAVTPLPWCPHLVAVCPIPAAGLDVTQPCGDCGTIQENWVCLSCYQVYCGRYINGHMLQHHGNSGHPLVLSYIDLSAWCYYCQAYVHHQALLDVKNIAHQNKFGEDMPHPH

[4] = target: T3, KDAC8 (histone deacetylase 8) (Homo sapiens, UniProt Q9BY41); assay: (§2) Inhibition of full length human C-terminal His-tagged KDAC8 expressed in baculovirus expression system at 30 uM using (FAM)-labeled peptide as substrate after 60 mins by microfluidic assay relative to control; settings: probe (FAM)-labeled peptide
T3 sequence (Q9BY41 whole entry): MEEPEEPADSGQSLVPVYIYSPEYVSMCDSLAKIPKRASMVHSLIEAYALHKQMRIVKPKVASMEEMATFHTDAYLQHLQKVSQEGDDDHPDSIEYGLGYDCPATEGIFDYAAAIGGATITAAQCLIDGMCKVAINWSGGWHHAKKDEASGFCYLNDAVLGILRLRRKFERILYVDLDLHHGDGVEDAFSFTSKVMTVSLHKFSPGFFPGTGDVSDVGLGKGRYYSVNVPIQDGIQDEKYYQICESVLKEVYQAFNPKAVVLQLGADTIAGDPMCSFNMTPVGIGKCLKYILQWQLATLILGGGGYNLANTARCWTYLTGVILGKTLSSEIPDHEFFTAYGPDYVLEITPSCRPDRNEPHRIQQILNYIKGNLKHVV

[5] = target: Histone deacetylase 1 (Homo sapiens, UniProt Q13547); assay: Inhibition of full length human C-terminal FLAG/His-tagged KDAC1 expressed in baculovirus expression system at 30 uM using substrate A after 60 mins by microfluidic assay relative to control; settings: 1 h, 30 µM
Sequence of Histone deacetylase 1 (Q13547 whole entry): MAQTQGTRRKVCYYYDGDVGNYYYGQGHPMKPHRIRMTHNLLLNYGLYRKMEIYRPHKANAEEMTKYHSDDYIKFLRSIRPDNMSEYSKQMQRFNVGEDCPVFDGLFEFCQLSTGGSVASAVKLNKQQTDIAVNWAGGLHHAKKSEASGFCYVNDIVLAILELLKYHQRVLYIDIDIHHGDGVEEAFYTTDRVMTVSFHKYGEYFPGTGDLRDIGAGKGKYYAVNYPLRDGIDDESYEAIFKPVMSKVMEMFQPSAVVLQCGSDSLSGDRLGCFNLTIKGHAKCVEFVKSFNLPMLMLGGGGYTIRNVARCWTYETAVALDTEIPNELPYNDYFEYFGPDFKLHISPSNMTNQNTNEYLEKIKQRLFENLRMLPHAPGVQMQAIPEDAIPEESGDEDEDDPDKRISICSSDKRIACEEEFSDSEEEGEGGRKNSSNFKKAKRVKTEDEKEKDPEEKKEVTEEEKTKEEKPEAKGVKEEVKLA

[6] = target: Histone deacetylase 3/Nuclear receptor corepressor 2 (HDAC3/NCoR2) (Homo sapiens, UniProt O15379+Q9Y618); assay: as §1; settings: 1 h, 30 µM
Sequence of Histone deacetylase 3/Nuclear receptor corepressor 2 (HDAC3/NCoR2) (O15379 whole entry): as the sequence (O15379 whole entry, the tested form may be a part) above
Sequence of Histone deacetylase 3/Nuclear receptor corepressor 2 (HDAC3/NCoR2) (Q9Y618 whole entry): as the sequence (Q9Y618 whole entry, further chain, the tested form may be a part) above

[7] = target: T4, Histone deacetylase 8 (Homo sapiens, UniProt Q9BY41); assay: as §2; settings: 1 h, 30 µM
T4 sequence (Q9BY41 whole entry): T3 sequence (Q9BY41 whole entry)

Structure (SMILES) | inhibition [1] | inhibition at 1 h, 30 µM [2] | inhibition (INH) [3] | inhibition at 1 h, 30 µM [4] | inhibition (INH) [5] | inhibition (INH) [6] | inhibition (INH) [7]
Cc1c(COC(=O)N(C)C)c(COC(=O)NC(C)C)c2n1CS(=O)(=O)C2 | inactive | 3% | Not Active | 7% | Not Active |  | 
Cc1cc(-n2cnc3c(O)ncnc32)ccc1N | 1% |  | Not Active |  | Not Active | Not Active | Not Active
Clc1ccc(Nc2nnc(-c3ccc4c(c3)OCO4)o2)cc1 | 10% |  | Not Active |  | Not Active | Not Active | Not Active
O=C1c2ccccc2C2=C3C(O)=NN=C3CCN12 | inactive | 1% | Not Active | 5% | Not Active |  | 
CC(C)NCC1CCc2cc(CO)c([N+](=O)[O-])cc2N1 (stereo not given) [OXAMNIQUINE] | inactive |  | Not Active |  | Not Active | Not Active | Not Active
CCOC(=O)C1=C(N)N=C(N)C1=Nc1ccc(OC)cc1 | inactive | 7% | Not Active |  | Not Active |  | Not Active
CC(=O)OCCn1c([N+](=O)[O-])cnc1/C=[N+](\[O-])C1CCCCC1 | 12% |  | Not Active |  | Not Active | Not Active | Not Active
Cc1cc(NC(=O)Nc2cc(F)ccc2F)no1 | inactive |  | Not Active |  | Not Active | Not Active | Not Active
Nc1ccccc1Sc1cc(Cl)nnc1Cl | inactive |  | Not Active |  | Not Active | Not Active | Not Active
Cc1ccc(Nc2nnc(S)s2)cc1F | 8% | 2% | Not Active |  | Not Active |  | Not Active

Next, values leading:

inhibition [1] | inhibition at 1 h, 30 µM [2] | inhibition (INH) [3] | inhibition at 1 h, 30 µM [4] | inhibition (INH) [5] | inhibition (INH) [6] | inhibition (INH) [7] | Structure (SMILES)
6% |  | Not Active |  | Not Active | Not Active | Not Active | O=C(O)c1ccccc1C(=O)Nc1ccccc1[N+](=O)[O-]
inactive |  | Not Active |  | Not Active | Not Active | Not Active | O=C(OCC(O)COC(=O)c1cccnc1)c1cccnc1
2% | 3% | Not Active |  | Not Active |  | Not Active | C=CCN=C(S)Nc1cccc([N+](=O)[O-])c1
2% |  | Not Active |  | Not Active | Not Active | Not Active | CCOP(=O)(OCC)/C(C#N)=C/c1ccc([N+](=O)[O-])cc1
3% | 3% | Not Active |  | Not Active |  | Not Active | COC(=O)C(=Cc1ccccc1[N+](=O)[O-])C(=O)OC
12% | 1% | Not Active |  | Not Active |  | Not Active | NS(=O)(=O)c1ccc(Nc2ccccc2)c([N+](=O)[O-])c1
2% | 6% | Not Active |  | Not Active |  | Not Active | NC(=O)c1ccccc1OCC(=O)Nc1ccc(Cl)c(Cl)c1

Reference: ChEMBL document CHEMBL4014283, “Structural insights of SmKDAC8 inhibitors: Targeting Schistosoma epigenetics through a combined structure-based 3D QSAR, in vitro and synthesis strategy” (Bioorg Med Chem, 2017)
